According to PubChem BioAssay (NCI):
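Protocol summary: plate cells (96-well), add compound at 5 concentrations, incubate 48 h, interpolate endpoints linearly. At the GI50, growth is halved. TGI: concentration producing complete growth inhibition.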 Where a SMILES comes first, the peptide text is derived from it. [ ]: non-standard residue; d: D form. The star is where a group is joined. Ac5c = NC1(C(=O)O)CCCC1; Cbz = O=C(OCc1ccccc1)*; Boc = CC(C)(C)OC(=O)*; tBu = CC(C)(C)*

How the values were obtained:
Test in all cases: DTP human tumour cell line panel, 48 h
NCI-H226 lung = system: NCI-H226 lung
UACC-257 melanoma = system: UACC-257 melanoma
HOP-92 NSCLC = system: HOP-92 NSCLC
NCI-H23 lung = system: NCI-H23 lung
TK-10 renal = system: TK-10 renal
A549 NSCLC = system: A549 NSCLC
HT29 colon = system: HT29 colon
COLO 205 colon = system: COLO 205 colon
MCF7 breast = system: MCF7 breast
NCI/ADR-RES ovarian = system: NCI/ADR-RES ovarian
T-47D breast = system: T-47D breast
PC-3 prostate = system: PC-3 prostate
SK-MEL-5 melanoma = system: SK-MEL-5 melanoma
SF-295 CNS = system: SF-295 CNS
ACHN renal = system: ACHN renal
M14 melanoma = system: M14 melanoma
OVCAR-8 ovarian = system: OVCAR-8 ovarian
A498 renal = system: A498 renal
MDA-MB-435 = system: MDA-MB-435
786-0 renal = system: 786-0 renal
CAKI-1 renal = system: CAKI-1 renal
K-562 leukemia = system: K-562 leukemia
UACC-62 melanoma = system: UACC-62 melanoma
DU-145 prostate = system: DU-145 prostate
HL-60(TB) leukemia = system: HL-60(TB) leukemia
OVCAR-3 ovarian = system: OVCAR-3 ovarian
NCI-H522 lung = system: NCI-H522 lung
SNB-75 CNS = system: SNB-75 CNS
MOLT-4 leukemia = system: MOLT-4 leukemia
NCI-H460 lung = system: NCI-H460 lung
KM12 colon = system: KM12 colon
OVCAR-5 ovarian = system: OVCAR-5 ovarian
HCT-116 colon = system: HCT-116 colon
IGROV1 ovarian = system: IGROV1 ovarian
HCT-15 colon = system: HCT-15 colon
UO-31 renal = system: UO-31 renal
SK-MEL-28 melanoma = system: SK-MEL-28 melanoma
RXF 393 renal = system: RXF 393 renal
SK-OV-3 ovarian = system: SK-OV-3 ovarian
U251 CNS = system: U251 CNS
HCC-2998 colon = system: HCC-2998 colon
HS 578T breast = system: HS 578T breast
SNB-19 CNS = system: SNB-19 CNS
SF-539 CNS = system: SF-539 CNS
CCRF-CEM leukemia = system: CCRF-CEM leukemia
MDA-MB-231 breast = system: MDA-MB-231 breast
EKVX NSCLC = system: EKVX NSCLC
SF-268 CNS = system: SF-268 CNS
SK-MEL-2 melanoma = system: SK-MEL-2 melanoma
OVCAR-4 ovarian = system: OVCAR-4 ovarian
SN12C renal = system: SN12C renal
HOP-62 NSCLC = system: HOP-62 NSCLC
LOX IMVI melanoma = system: LOX IMVI melanoma
SW-620 colon = system: SW-620 colon
MALME-3M melanoma = system: MALME-3M melanoma
RPMI-8226 leukemia = system: RPMI-8226 leukemia
BT-549 breast = system: BT-549 breast
SR leukemia = system: SR leukemia

## CC(OC(C)(C)C)C(NC(=O)C(CCCCNC(=O)OC(C)(C)C)NC(=O)C(Cc1c[nH]c2ccccc12)NC(=O)C(N)Cc1ccccc1)C(=O)NC(Cc1ccccc1)C(=O)NC1(C(=O)O)CCCC1 (stereo unspecified) (H-FWK(Boc)T(tBu)F[Ac5c]-OH; configuration not given here)
NCI-H226 lung
  TGI: > 100 µM
UACC-257 melanoma
  TGI: > 100 µM
HOP-92 NSCLC
  TGI: > 100 µM
NCI-H23 lung
  TGI: > 100 µM

## C/C=C(\C)C(=O)O[C@@H]1C=CC(=O)O[C@H]1COC(=O)[C@H](C)O
TK-10 renal
  GI50: 13 µM
  TGI: 25.8 µM
A549 NSCLC
  GI50: 18.7 µM
  TGI: 51.9 µM
HT29 colon
  GI50: 5.93 µM
  TGI: 20.9 µM
COLO 205 colon
  GI50: 6.57 µM
  TGI: 23.7 µM
MCF7 breast
  GI50: 4.53 µM
  TGI: 18.3 µM
NCI-H226 lung
  GI50: 14.7 µM
  TGI: 44.7 µM
NCI/ADR-RES ovarian
  GI50: 14.6 µM
  TGI: 56.8 µM
T-47D breast
  GI50: 4.64 µM
  TGI: 25.6 µM
PC-3 prostate
  GI50: 10.5 µM
  TGI: 31.6 µM
SK-MEL-5 melanoma
  GI50: 12.6 µM
  TGI: 25.1 µM
SF-295 CNS
  GI50: 27.4 µM
  TGI: 62.1 µM
ACHN renal
  GI50: 6.16 µM
  TGI: 19 µM
M14 melanoma
  GI50: 11.1 µM
  TGI: 30 µM
OVCAR-8 ovarian
  GI50: 18.1 µM
  TGI: > 100 µM
A498 renal
  GI50: 15.2 µM
  TGI: 30.4 µM
MDA-MB-435
  GI50: 15.2 µM
  TGI: 71.6 µM
786-0 renal
  GI50: 9.2 µM
  TGI: 21.2 µM
CAKI-1 renal
  GI50: 27 µM
  TGI: 42.9 µM
K-562 leukemia
  GI50: 5.21 µM
  TGI: > 100 µM
UACC-62 melanoma
  GI50: 12.4 µM
  TGI: 25.5 µM
DU-145 prostate
  GI50: 10.8 µM
  TGI: 31.8 µM
HL-60(TB) leukemia
  GI50: 4.41 µM
  TGI: 21.3 µM
OVCAR-3 ovarian
  GI50: 14 µM
  TGI: 27.6 µM
NCI-H522 lung
  GI50: 4.96 µM
  TGI: 20.7 µM
SNB-75 CNS
  GI50: 10.8 µM
  TGI: 32 µM
MOLT-4 leukemia
  GI50: 7.31 µM
  TGI: 28.4 µM
NCI-H460 lung
  GI50: 12.7 µM
  TGI: 28.6 µM
KM12 colon
  GI50: 13.3 µM
  TGI: 27 µM
OVCAR-5 ovarian
  GI50: 15.3 µM
  TGI: 31.5 µM
UACC-257 melanoma
  GI50: 13.4 µM
  TGI: 46.8 µM
HCT-116 colon
  GI50: 3.39 µM
  TGI: 12.2 µM
IGROV1 ovarian
  GI50: 7.46 µM
  TGI: 24.6 µM
HCT-15 colon
  GI50: 5.68 µM
  TGI: 19.5 µM
UO-31 renal
  GI50: 12.7 µM
  TGI: 27.5 µM
SK-MEL-28 melanoma
  GI50: 12.4 µM
  TGI: 27.9 µM
RXF 393 renal
  GI50: 6.51 µM
  TGI: 30 µM
SK-OV-3 ovarian
  GI50: 25.2 µM
  TGI: 88.6 µM
U251 CNS
  GI50: 11.5 µM
  TGI: 25 µM
HOP-92 NSCLC
  GI50: 7.83 µM
  TGI: 21.9 µM
HCC-2998 colon
  GI50: 14.8 µM
  TGI: 28.7 µM
NCI-H23 lung
  GI50: 18.4 µM
  TGI: 50.6 µM
HS 578T breast
  GI50: 5.61 µM
  TGI: 34.6 µM
SNB-19 CNS
  GI50: 19.8 µM
  TGI: 56 µM
SF-539 CNS
  GI50: 16.5 µM
  TGI: 59.4 µM
CCRF-CEM leukemia
  GI50: 0.733 µM
  TGI: 17 µM
MDA-MB-231 breast
  GI50: 13.7 µM
  TGI: 29.1 µM
EKVX NSCLC
  GI50: 19 µM
  TGI: 42.1 µM
SF-268 CNS
  GI50: 3.72 µM
  TGI: 19.5 µM
SK-MEL-2 melanoma
  GI50: 17.5 µM
  TGI: 68.6 µM
OVCAR-4 ovarian
  GI50: 11.5 µM
  TGI: 31 µM
SN12C renal
  GI50: 14.5 µM
  TGI: 30.2 µM
HOP-62 NSCLC
  GI50: 16.8 µM
  TGI: 33.3 µM
LOX IMVI melanoma
  GI50: 9.64 µM
  TGI: 22.2 µM
SW-620 colon
  GI50: 4.79 µM
  TGI: 15.9 µM
MALME-3M melanoma
  GI50: 12.1 µM
  TGI: 25.9 µM
RPMI-8226 leukemia
  GI50: 18.8 µM
  TGI: 44.2 µM

## COC(=O)C1(NC(=O)C(Cc2ccccc2)NC(=O)C(NC(=O)C(CCCCNC(=O)OC(C)(C)C)NC(=O)C(Cc2c[nH]c3ccccc23)NC(=O)C(Cc2ccccc2)NC(=O)OCc2ccccc2)C(C)OC(C)(C)C)CCCC1 (stereo unspecified) (Cbz-FWK(Boc)T(tBu)F[Ac5c]-OMe; configuration not given here)
NCI-H226 lung
  TGI: > 100 µM
UACC-257 melanoma
  TGI: > 100 µM
HOP-92 NSCLC
  TGI: > 100 µM
NCI-H23 lung
  TGI: > 100 µM

## O=C(O)c1ccccc1/C=C1\Cc2ccc3c(c2C1=O)CCCC3
TK-10 renal
  TGI: > 100 µM
A549 NSCLC
  TGI: > 100 µM
HT29 colon
  TGI: > 100 µM
COLO 205 colon
  TGI: > 100 µM
MCF7 breast
  TGI: > 100 µM
NCI-H226 lung
  TGI: 82.7 µM
BT-549 breast
  TGI: > 100 µM
NCI/ADR-RES ovarian
  TGI: > 100 µM
T-47D breast
  TGI: 79.3 µM
SK-MEL-5 melanoma
  TGI: 37 µM
SF-295 CNS
  TGI: 99.5 µM
ACHN renal
  TGI: > 100 µM
M14 melanoma
  TGI: 81.1 µM
OVCAR-8 ovarian
  TGI: > 100 µM
A498 renal
  TGI: 89 µM
MDA-MB-435
  TGI: > 100 µM
786-0 renal
  TGI: > 100 µM
K-562 leukemia
  TGI: > 100 µM
UACC-62 melanoma
  TGI: 46.5 µM
DU-145 prostate
  TGI: > 100 µM
HL-60(TB) leukemia
  TGI: 62.3 µM
OVCAR-3 ovarian
  TGI: > 100 µM
NCI-H522 lung
  TGI: 65.9 µM
SNB-75 CNS
  TGI: 86 µM
MOLT-4 leukemia
  TGI: 58.6 µM
NCI-H460 lung
  TGI: > 100 µM
KM12 colon
  TGI: > 100 µM
OVCAR-5 ovarian
  TGI: > 100 µM
UACC-257 melanoma
  TGI: 68.4 µM
HCT-116 colon
  TGI: 80.4 µM
IGROV1 ovarian
  TGI: > 100 µM
HCT-15 colon
  TGI: > 100 µM
UO-31 renal
  TGI: > 100 µM
SK-MEL-28 melanoma
  TGI: > 100 µM
RXF 393 renal
  TGI: 76.3 µM
SK-OV-3 ovarian
  TGI: > 100 µM
U251 CNS
  TGI: > 100 µM
HOP-92 NSCLC
  TGI: 47.6 µM
HCC-2998 colon
  TGI: 85.1 µM
NCI-H23 lung
  TGI: 75.4 µM
HS 578T breast
  TGI: 81.2 µM
SNB-19 CNS
  TGI: > 100 µM
SF-539 CNS
  TGI: 81.6 µM
CCRF-CEM leukemia
  TGI: 66.2 µM
MDA-MB-231 breast
  TGI: 62.3 µM
EKVX NSCLC
  TGI: > 100 µM
SF-268 CNS
  TGI: > 100 µM
SK-MEL-2 melanoma
  TGI: 88.7 µM
OVCAR-4 ovarian
  TGI: > 100 µM
SN12C renal
  TGI: > 100 µM
HOP-62 NSCLC
  TGI: > 100 µM
SR leukemia
  TGI: 61 µM
LOX IMVI melanoma
  TGI: > 100 µM
SW-620 colon
  TGI: > 100 µM
MALME-3M melanoma
  TGI: > 100 µM
RPMI-8226 leukemia
  TGI: 60.8 µM
